Measured values published in PubChem BioAssay AID1963848 (Molecular Pharmacology Branch, DTP, NCI, 2024).

System: 379773-124-R-J2-PDC spheroid viability
Assay: Anticancer human tumor 379773-124-R-J2-PDC patient-derived endometrial carcinoma cell line growth inhibition [POLQ]
Settings: spheroids with HUVEC and MSC; for IC50: curve of first compound; for viability, T/C: stronger effect = lower value; active = viability on the fitted dose curve at most 10% of control; inactive = the rest
Summary of the method: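 Patient-derived tumour cells were co-cultured with HUVEC and mesenchymal stem cells as multicellular spheroids at 37 °C. They were treated with POLQ inhibitors (novobiocin, ART-558, RP6685) alone or combined with other agents. Top concentrations were at or near clinical Cmax (otherwise 10 microM; SN-38 at 1 microM), decreasing in half-log steps.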

[1] = second compound 0.0316 µM, first compound 0.0316 µM
[2] = second compound 0.0316 µM, first compound 0.1 µM
[3] = second compound 0.0316 µM, first compound 0.316 µM
[4] = second compound 0.0316 µM, first compound 1 µM
[5] = second compound 0.1 µM, first compound 0.0316 µM
[6] = second compound 0.1 µM, first compound 0.1 µM
[7] = second compound 0.1 µM, first compound 0.316 µM
[8] = second compound 0.1 µM, first compound 1 µM
[9] = second compound 0.316 µM, first compound 0.0316 µM
[10] = second compound 0.316 µM, first compound 0.1 µM
[11] = second compound 0.316 µM, first compound 0.316 µM
[12] = second compound 0.316 µM, first compound 1 µM
[13] = second compound 1 µM, first compound 0.0316 µM
[14] = second compound 1 µM, first compound 0.1 µM
[15] = second compound 1 µM, first compound 0.316 µM
[16] = second compound 1 µM, first compound 1 µM
[17] = second compound 3.16 µM, first compound 0.0316 µM
[18] = second compound 3.16 µM, first compound 0.1 µM
[19] = second compound 3.16 µM, first compound 0.316 µM
[20] = second compound 3.16 µM, first compound 1 µM
[21] = second compound 10 µM, first compound 0.0316 µM
[22] = second compound 10 µM, first compound 0.1 µM
[23] = second compound 10 µM, first compound 0.316 µM
[24] = second compound 10 µM, first compound 1 µM
[25] = second compound 0.0316 µM, first compound 3.16 µM
[26] = second compound 0.0316 µM, first compound 10 µM
[27] = second compound 0.1 µM, first compound 3.16 µM
[28] = second compound 0.1 µM, first compound 10 µM
[29] = second compound 0.316 µM, first compound 3.16 µM
[30] = second compound 0.316 µM, first compound 10 µM
[31] = second compound 1 µM, first compound 3.16 µM
[32] = second compound 1 µM, first compound 10 µM
[33] = second compound 3.16 µM, first compound 3.16 µM
[34] = second compound 3.16 µM, first compound 10 µM
[35] = second compound 10 µM, first compound 3.16 µM
[36] = second compound 10 µM, first compound 10 µM
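Note: spheroids exposed to drugs for seven days before readout.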
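Throughout, for viability, T/C: percent viability relative to DMSO vehicle control taken as 100%.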

CCc1c2c(nc3ccc(O)cc13)-c1cc3c(c(=O)n1C2)COC(=O)[C@]3(O)CC + Cc1cccc(N(C)C(=O)C2C(O)CCN2c2nc(C)cc(C(F)(F)F)c2C#N)c1
inactive: viability, T/C (second compound 0.0316 µM, first compound 0.00316 µM) 42.3% | viability, T/C (second compound 0.0316 µM, first compound 0.01 µM) 11.2% | viability, T/C (second compound 0.1 µM, first compound 0.00316 µM) 42.5% | viability, T/C (second compound 0.1 µM, first compound 0.01 µM) 11.1% | viability, T/C (second compound 0.316 µM, first compound 0.00316 µM) 50% | viability, T/C (second compound 0.316 µM, first compound 0.01 µM) 10.5% | viability, T/C (second compound 1 µM, first compound 0.00316 µM) 41.5% | viability, T/C (second compound 1 µM, first compound 0.01 µM) 12.6% | viability, T/C (second compound 3.16 µM, first compound 0.00316 µM) 43.7% | viability, T/C (second compound 3.16 µM, first compound 0.01 µM) 14.4% | viability, T/C (second compound 10 µM, first compound 0.00316 µM) 30.8% | viability, T/C (second compound 10 µM, first compound 0.01 µM) 13.9%
< 0.00316 µM: IC50 (second compound 0.0316 µM) | IC50 (second compound 0.1 µM) | IC50 (second compound 0.316 µM) | IC50 (second compound 1 µM) | IC50 (second compound 3.16 µM) | IC50 (second compound 10 µM)
active: viability, T/C [1] 7.22% | viability, T/C [2] 2.98% | viability, T/C [3] 1.21% | viability, T/C [4] 0.39% | viability, T/C [5] 6.54% | viability, T/C [6] 3.61% | viability, T/C [7] 2% | viability, T/C [8] 1.94% | viability, T/C [9] 6.39% | viability, T/C [10] 2.26% | viability, T/C [11] 1.38% | viability, T/C [12] 0.58% | viability, T/C [13] 7.38% | viability, T/C [14] 2.95% | viability, T/C [15] 2.13% | viability, T/C [16] 0.49% | viability, T/C [17] 7.52% | viability, T/C [18] 3.81% | viability, T/C [19] 1.74% | viability, T/C [20] 0.63% | viability, T/C [21] 7.18% | viability, T/C [22] 3.13% | viability, T/C [23] 2.07% | viability, T/C [24] 1.28%

C=CC(=O)N1CCN(c2nc(=O)n(-c3c(C)ccnc3C(C)C)c3nc(-c4c(O)cccc4F)c(F)cc23)C(C)C1 (stereo unspecified) + Cc1cccc(N(C)C(=O)C2C(O)CCN2c2nc(C)cc(C(F)(F)F)c2C#N)c1
inactive: viability, T/C [1] 88.5% | viability, T/C [2] 89.8% | viability, T/C [3] 82% | viability, T/C [4] 105% | viability, T/C [25] 77.1% | viability, T/C [26] 76.2% | viability, T/C [5] 84.9% | viability, T/C [6] 77.8% | viability, T/C [7] 87.7% | viability, T/C [8] 74.4% | viability, T/C [27] 80.4% | viability, T/C [28] 86.1% | viability, T/C [9] 91% | viability, T/C [10] 70.4% | viability, T/C [11] 82.8% | viability, T/C [12] 85% | viability, T/C [29] 95.8% | viability, T/C [30] 75.7% | viability, T/C [13] 80% | viability, T/C [14] 81.1% | viability, T/C [15] 95.2% | viability, T/C [16] 75.2% | viability, T/C [31] 87.4% | viability, T/C [32] 64.2% | viability, T/C [17] 84.4% | viability, T/C [18] 90.3% | viability, T/C [19] 87.3% | viability, T/C [20] 86.3% | viability, T/C [33] 86.6% | viability, T/C [34] 78.9% | viability, T/C [21] 78% | viability, T/C [22] 82.1% | viability, T/C [23] 91.8% | viability, T/C [24] 73.5% | viability, T/C [35] 82.8% | viability, T/C [36] 84.3%
> 10 µM: IC50 (second compound 0.0316 µM) | IC50 (second compound 0.1 µM) | IC50 (second compound 0.316 µM) | IC50 (second compound 1 µM) | IC50 (second compound 3.16 µM) | IC50 (second compound 10 µM)

CCc1cc2c(N3CCc4c(cc(Cn5ccnc5)cc4-c4cn(C)nc4C(F)(F)F)C3=O)cc(C)nc2c(OC)n1 + Nc1ccc(C#CCN(C(=O)Cc2ncc(C(F)(F)F)cc2C(F)(F)F)c2ccc(F)cc2)nn1
> 10 µM: IC50 (second compound 0.0316 µM) | IC50 (second compound 3.16 µM) | IC50 (second compound 10 µM)
9.88 µM: IC50 (second compound 1 µM)
6.39 µM: IC50 (second compound 0.1 µM)
4.84 µM: IC50 (second compound 0.316 µM)
inactive: viability, T/C [1] 75.7% | viability, T/C [2] 78.4% | viability, T/C [3] 61.9% | viability, T/C [4] 60.9% | viability, T/C [25] 64.3% | viability, T/C [26] 48.9% | viability, T/C [5] 66.9% | viability, T/C [6] 81.1% | viability, T/C [7] 65.3% | viability, T/C [8] 62.2% | viability, T/C [27] 55.7% | viability, T/C [28] 46.4% | viability, T/C [9] 74.3% | viability, T/C [10] 73% | viability, T/C [11] 66.6% | viability, T/C [12] 62.3% | viability, T/C [29] 52.1% | viability, T/C [30] 44.7% | viability, T/C [13] 77.5% | viability, T/C [14] 68.8% | viability, T/C [15] 66.2% | viability, T/C [16] 61.6% | viability, T/C [31] 52.4% | viability, T/C [32] 50.6% | viability, T/C [17] 82.2% | viability, T/C [18] 67.6% | viability, T/C [19] 67.2% | viability, T/C [20] 64.7% | viability, T/C [33] 57.9% | viability, T/C [34] 51.8% | viability, T/C [21] 74.5% | viability, T/C [22] 68.2% | viability, T/C [23] 70.7% | viability, T/C [24] 56% | viability, T/C [35] 56.4% | viability, T/C [36] 51.8%
